Experimental data taken from patent US12139520B2 (priority 2020, dated 2024).
Read-outs that look alike come from different tables or passages of the source. Bridge positions count the residues as written; N and C are the ends. Square brackets hold non-standard residues; d marks the D form. Peptide text beside a SMILES is read from it. Hyp = O=C(O)[C@@H]1C[C@@H](O)CN1

How the values were obtained:
[1] = molecular target: hAM1 receptor (Homo sapiens, UniProt O60895+Q16602); test: cAMP assay for in vitro receptor activation, hAM1-R; assay type: cell-based; conditions: for EC50: read-out: hAM1R EC50
Chain of hAM1 receptor (Q16602 23-461): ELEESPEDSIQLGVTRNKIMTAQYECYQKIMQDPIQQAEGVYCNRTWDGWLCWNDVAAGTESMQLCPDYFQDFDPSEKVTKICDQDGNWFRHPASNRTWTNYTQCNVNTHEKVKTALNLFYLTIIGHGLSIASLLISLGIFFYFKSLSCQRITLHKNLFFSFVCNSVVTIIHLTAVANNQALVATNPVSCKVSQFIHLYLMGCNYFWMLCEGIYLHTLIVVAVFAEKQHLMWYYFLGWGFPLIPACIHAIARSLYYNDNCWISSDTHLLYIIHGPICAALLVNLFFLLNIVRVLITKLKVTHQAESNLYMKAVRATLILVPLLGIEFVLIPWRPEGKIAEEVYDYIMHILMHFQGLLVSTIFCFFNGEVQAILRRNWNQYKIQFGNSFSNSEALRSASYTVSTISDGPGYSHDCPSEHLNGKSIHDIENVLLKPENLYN
Chain of hAM1 receptor (O60895 43-175 partner): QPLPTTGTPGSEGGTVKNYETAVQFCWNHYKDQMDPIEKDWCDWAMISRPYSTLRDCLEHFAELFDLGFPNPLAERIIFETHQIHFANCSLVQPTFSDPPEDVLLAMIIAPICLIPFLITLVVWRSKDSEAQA
Method in brief: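 Receptor activation, read as cAMP, was assessed in thawed cells of a monoclonal hAM1-overexpressing stable line, plated at 8000 cells/well in DPBS supplemented with 0.05% casein and 0.5 mM IBMX.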

[2] = molecular target: T1, hAMY3 receptor (Homo sapiens, UniProt O60896+P30988); test: cAMP assay for in vitro receptor activation, hAMY3-R; assay type: cell-based; conditions: for EC50: read-out: hAMY3R EC50
T1 sequence (P30988 25-474): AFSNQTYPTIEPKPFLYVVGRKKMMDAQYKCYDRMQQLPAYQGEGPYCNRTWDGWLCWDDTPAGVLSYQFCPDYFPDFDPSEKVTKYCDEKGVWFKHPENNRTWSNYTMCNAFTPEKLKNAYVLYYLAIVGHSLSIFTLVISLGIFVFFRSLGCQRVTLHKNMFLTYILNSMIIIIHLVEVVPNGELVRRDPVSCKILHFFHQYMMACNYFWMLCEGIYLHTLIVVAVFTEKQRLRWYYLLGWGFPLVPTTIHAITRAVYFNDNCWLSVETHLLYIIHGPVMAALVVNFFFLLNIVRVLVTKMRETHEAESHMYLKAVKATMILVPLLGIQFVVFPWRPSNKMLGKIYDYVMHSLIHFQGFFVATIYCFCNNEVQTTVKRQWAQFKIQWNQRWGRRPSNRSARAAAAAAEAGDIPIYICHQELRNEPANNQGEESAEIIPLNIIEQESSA
T1 sequence (O60896 24-148 partner): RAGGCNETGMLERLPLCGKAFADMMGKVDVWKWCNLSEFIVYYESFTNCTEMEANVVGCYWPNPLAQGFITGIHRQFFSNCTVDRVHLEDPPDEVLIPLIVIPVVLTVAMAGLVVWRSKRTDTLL
Method in brief: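 Monoclonal cell line stably overexpressing human AMY3 receptor, 2000 cells/well in DPBS with 0.05% casein and 0.5 mM IBMX. Stimulated 30 min at room temperature with graded compound doses, human amylin as positive control. cAMP accumulation read by TR-FRET after one hour.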

[3] = Physical stability of peptide analogues (Thioflavin T fibrillation); assay type: physicochemical; conditions: maximum ThT signal normalized between hAMY maximum and buffer background; 40° C., shaking, four days; pH 7 per table title
Method in brief: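 Maximum ThT emission at 480 nm, after LOESS smoothing, is given as percent of the span from buffer background to hAMY. Conditions: 50 mM buffer at pH 4 or 7, 4 μM dye, 40 °C, repeated shaking, readings every 10 min for four days.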

| EC50 ([1]; cAMP accumulation, cells stably overexpressing hAM1 receptor, 30 min stimulation) | decrease of potency on AM1R compared to hAM15-52 ([1]; relative to SEQ ID NO: 1) | EC50 ([2]; cAMP accumulation, cells stably overexpressing hAMY3 receptor, 30 min stimulation) | improvement of potency on AMY3R compared to hAM15-52 ([2]; relative to SEQ ID NO: 1) | Max ThT signal (%) [3] | EC50 ([1]; cAMP assay, hAM1 receptor) | EC50 ([2]; cAMP assay, hAMY3 receptor) | SMILES |
| --- | --- | --- | --- | --- | --- | --- | --- |
| 2980 nM | approximately 2500 fold | 0.063 nM | approximately 20 fold | 2.700% | – | – | CC[C@H](C)[C@H](NC(=O)[C@H](CCC(N)=O)NC(=O)[C@H](Cc1c[nH]cn1)NC(=O)[C@H](C)NC(=O)[C@H](CC(C)C)NC(=O)[C@H](CCCNC(=N)N)NC(=O)[C@H](CCC(N)=O)NC(=O)[C@@H](NC(=O)[C@@H](NC(=O)[C@@H]1CSSC[C@H](NC(=O)CN)C(=O)N[C@@H](CCCNC(=N)N)C(=O)N[C@@H](Cc2ccccc2)C(=O)NCC(=O)N[C@@H]([C@@H](C)O)C(=O)N1)[C@@H](C)O)C(C)C)C(=O)N[C@@H](Cc1ccc(O)cc1)C(=O)N[C@@H](CCC(N)=O)C(=O)N[C@@H](Cc1ccccc1)C(=O)N[C@H](C(=O)N[C@@H](CC(=O)O)C(=O)N[C@@H](CCCCN)C(=O)N[C@@H](CC(=O)O)C(=O)N[C@@H](CCCCN)C(=O)N[C@@H](CC(=O)O)C(=O)N[C@@H](CC(N)=O)C(=O)N[C@H](C(=O)N[C@@H](C)C(=O)N1CCC[C@H]1C(=O)N[C@@H](CCCNC(=N)N)C(=O)N[C@@H](CO)C(=O)N[C@@H](CCCCN)C(=O)N[C@H](C(=O)N[C@@H](CO)C(=O)N1CCC[C@H]1C(=O)N[C@@H](CCC(N)=O)C(=O)NCC(=O)N1C[C@H](O)C[C@H]1C(N)=O)[C@@H](C)CC)C(C)C)[C@@H](C)O [SEQ ID NO: 169, GCRFGTCTVQRLAHQIYQFTDKDKDNVAPRSKISPQG Hyp] (H-GCRFGTCTVQRLAHQIYQFTDKDKDNVAPRSKISPQG[Hyp]-NH2; disulfide 2-7; N-terminus assumed) |
| – | – | – | – | 2.800% | > 5000 nM | 0.006 nM | CC[C@H](C)[C@H](NC(=O)[C@H](CCC(N)=O)NC(=O)[C@H](C)NC(=O)[C@H](C)NC(=O)[C@H](CC(C)C)NC(=O)[C@H](CCCNC(=N)N)NC(=O)[C@H](CCC(N)=O)NC(=O)[C@@H](NC(=O)[C@@H](NC(=O)[C@@H]1CSSC[C@H](NC(=O)[C@@H](N)CCCCN)C(=O)N[C@@H](CC(N)=O)C(=O)N[C@@H]([C@@H](C)O)C(=O)N[C@@H](C)C(=O)N[C@@H]([C@@H](C)O)C(=O)N1)[C@@H](C)O)C(C)C)C(=O)N[C@@H](Cc1ccc(O)cc1)C(=O)N[C@@H](CCC(N)=O)C(=O)N[C@@H](Cc1ccccc1)C(=O)N[C@H](C(=O)N[C@@H](CC(=O)O)C(=O)N[C@@H](CCCCN)C(=O)N[C@@H](CC(=O)O)C(=O)N[C@@H](CCCCN)C(=O)N[C@@H](CC(=O)O)C(=O)N[C@@H](CC(N)=O)C(=O)N[C@H](C(=O)N[C@@H](C)C(=O)N1CCC[C@H]1C(=O)N1CCC[C@H]1C(=O)N[C@H](C(=O)N[C@@H](CC(N)=O)C(=O)N[C@H](C(=O)NCC(=O)N[C@@H](CO)C(=O)N[C@@H](CC(N)=O)C(=O)NCC(=O)N1C[C@H](O)C[C@H]1C(N)=O)C(C)C)[C@@H](C)O)C(C)C)[C@@H](C)O [compound 7] (H-KCNTATCTVQRLAAQIYQFTDKDKDNVAPPTNVGSNG[Hyp]-NH2; disulfide 2-7; N-terminus assumed) |
| – | – | – | – | 5.000% | > 5000 nM | 0.007 nM | CC[C@H](C)[C@H](NC(=O)[C@H](C)NC(=O)[C@H](Cc1c[nH]cn1)NC(=O)[C@H](C)NC(=O)[C@H](CC(C)C)NC(=O)[C@H](CCCNC(=N)N)NC(=O)[C@H](CCC(N)=O)NC(=O)[C@@H](NC(=O)[C@@H](NC(=O)[C@@H]1CSSC[C@H](NC(=O)[C@@H](N)CCCCN)C(=O)N[C@@H](CC(N)=O)C(=O)N[C@@H]([C@@H](C)O)C(=O)N[C@@H](C)C(=O)N[C@@H]([C@@H](C)O)C(=O)N1)[C@@H](C)O)C(C)C)C(=O)N[C@@H](Cc1ccc(O)cc1)C(=O)N[C@@H](CCC(N)=O)C(=O)N[C@@H](Cc1ccccc1)C(=O)N[C@H](C(=O)N[C@@H](CC(=O)O)C(=O)N[C@@H](CCCCN)C(=O)N[C@@H](CC(=O)O)C(=O)N[C@@H](CCCCN)C(=O)N[C@@H](CC(=O)O)C(=O)N[C@@H](CC(N)=O)C(=O)N[C@H](C(=O)N[C@@H](C)C(=O)N1CCC[C@H]1C(=O)N1CCC[C@H]1C(=O)N[C@H](C(=O)N[C@@H](CC(N)=O)C(=O)N[C@H](C(=O)NCC(=O)N[C@@H](CO)C(=O)N[C@@H](CC(N)=O)C(=O)NCC(=O)N1C[C@H](O)C[C@H]1C(N)=O)C(C)C)[C@@H](C)O)C(C)C)[C@@H](C)O [compound 13] (H-KCNTATCTVQRLAHAIYQFTDKDKDNVAPPTNVGSNG[Hyp]-NH2; disulfide 2-7; N-terminus assumed) |
| – | – | – | – | 3.100% | > 5000 nM | 0.007 nM | CC[C@H](C)[C@H](NC(=O)[C@H](CCC(N)=O)NC(=O)[C@H](Cc1c[nH]cn1)NC(=O)[C@H](C)NC(=O)[C@H](CC(C)C)NC(=O)[C@H](CCCNC(=N)N)NC(=O)[C@H](CCC(N)=O)NC(=O)[C@@H](NC(=O)[C@@H](NC(=O)[C@@H]1CSSC[C@H](NC(=O)[C@@H](N)CCCCN)C(=O)N[C@@H](CC(N)=O)C(=O)N[C@@H]([C@@H](C)O)C(=O)N[C@@H](C)C(=O)N[C@@H]([C@@H](C)O)C(=O)N1)[C@@H](C)O)C(C)C)C(=O)N[C@@H](C)C(=O)N[C@@H](CCC(N)=O)C(=O)N[C@@H](Cc1ccccc1)C(=O)N[C@H](C(=O)N[C@@H](CC(=O)O)C(=O)N[C@@H](CCCCN)C(=O)N[C@@H](CC(=O)O)C(=O)N[C@@H](CCCCN)C(=O)N[C@@H](CC(=O)O)C(=O)N[C@@H](CC(N)=O)C(=O)N[C@H](C(=O)N[C@@H](C)C(=O)N1CCC[C@H]1C(=O)N1CCC[C@H]1C(=O)N[C@H](C(=O)N[C@@H](CC(N)=O)C(=O)N[C@H](C(=O)NCC(=O)N[C@@H](CO)C(=O)N[C@@H](CC(N)=O)C(=O)NCC(=O)N1C[C@H](O)C[C@H]1C(N)=O)C(C)C)[C@@H](C)O)C(C)C)[C@@H](C)O [compound 14] (H-KCNTATCTVQRLAHQIAQFTDKDKDNVAPPTNVGSNG[Hyp]-NH2; disulfide 2-7; N-terminus assumed) |
| – | – | – | – | 9.100% | > 5000 nM | 0.008 nM | CC[C@H](C)[C@H](NC(=O)[C@H](CCC(N)=O)NC(=O)[C@H](Cc1c[nH]cn1)NC(=O)[C@H](C)NC(=O)[C@H](CC(C)C)NC(=O)[C@H](CCCNC(=N)N)NC(=O)[C@H](CCC(N)=O)NC(=O)[C@@H](NC(=O)[C@@H](NC(=O)[C@@H]1CSSC[C@H](NC(=O)[C@@H](N)CCCCN)C(=O)N[C@@H](CC(N)=O)C(=O)N[C@@H]([C@@H](C)O)C(=O)N[C@@H](C)C(=O)N[C@@H]([C@@H](C)O)C(=O)N1)[C@@H](C)O)C(C)C)C(=O)N[C@@H](Cc1ccc(O)cc1)C(=O)N[C@@H](CCC(N)=O)C(=O)N[C@@H](Cc1ccccc1)C(=O)N[C@H](C(=O)N[C@@H](CC(=O)O)C(=O)N[C@@H](CCCCN)C(=O)N[C@@H](CC(=O)O)C(=O)N[C@@H](CCCCN)C(=O)N[C@@H](CC(=O)O)C(=O)N[C@@H](CC(N)=O)C(=O)N[C@H](C(=O)N[C@@H](C)C(=O)N1CCC[C@H]1C(=O)N[C@@H](CCCNC(=N)N)C(=O)N[C@H](C(=O)N[C@@H](CCCCN)C(=O)N[C@H](C(=O)NCC(=O)N[C@@H](CO)C(=O)N[C@@H](CC(N)=O)C(=O)NCC(=O)N1C[C@H](O)C[C@H]1C(N)=O)C(C)C)[C@@H](C)O)C(C)C)[C@@H](C)O [compound 20] (H-KCNTATCTVQRLAHQIYQFTDKDKDNVAPRTKVGSNG[Hyp]-NH2; disulfide 2-7; N-terminus assumed) |
| – | – | – | – | 4.200% | > 5000 nM | 0.008 nM | CC[C@H](C)[C@H](NC(=O)[C@H](CCC(N)=O)NC(=O)[C@H](Cc1c[nH]cn1)NC(=O)[C@H](C)NC(=O)[C@H](CC(C)C)NC(=O)[C@H](CCCNC(=N)N)NC(=O)[C@H](CCC(N)=O)NC(=O)[C@@H](NC(=O)[C@@H](NC(=O)[C@@H]1CSSC[C@H](NC(=O)[C@@H](N)CCCCN)C(=O)N[C@@H](CC(N)=O)C(=O)N[C@@H]([C@@H](C)O)C(=O)N[C@@H](C)C(=O)N[C@@H]([C@@H](C)O)C(=O)N1)[C@@H](C)O)C(C)C)C(=O)N[C@@H](Cc1ccc(O)cc1)C(=O)N[C@@H](CCC(N)=O)C(=O)N[C@@H](Cc1ccccc1)C(=O)N[C@@H](C)C(=O)N[C@@H](CC(=O)O)C(=O)N[C@@H](CCCCN)C(=O)N[C@@H](CC(=O)O)C(=O)N[C@@H](CCCCN)C(=O)N[C@@H](CC(=O)O)C(=O)N[C@@H](CC(N)=O)C(=O)N[C@H](C(=O)N[C@@H](C)C(=O)N1CCC[C@H]1C(=O)N1CCC[C@H]1C(=O)N[C@H](C(=O)N[C@@H](CC(N)=O)C(=O)N[C@H](C(=O)NCC(=O)N[C@@H](CO)C(=O)N[C@@H](CC(N)=O)C(=O)NCC(=O)N1C[C@H](O)C[C@H]1C(N)=O)C(C)C)[C@@H](C)O)C(C)C [compound 23] (H-KCNTATCTVQRLAHQIYQFADKDKDNVAPPTNVGSNG[Hyp]-NH2; disulfide 2-7) |
